According to PubChem BioAssay (NCI):
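Tested at 5 concentrations; 48 h exposure; 96-well plates; endpoints linearly interpolated, else capped at highest concentration. Abbreviation: GI50, concentration required for 50% inhibition of growth. TGI marks complete inhibition of growth.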

Assays:
Assay in all cases: NCI-60 cell line screen, 48 h
ACHN renal = tested on: ACHN renal
CAKI-1 renal = tested on: CAKI-1 renal
EKVX NSCLC = tested on: EKVX NSCLC
HCT-15 colon = tested on: HCT-15 colon
HS 578T breast = tested on: HS 578T breast
LOX IMVI melanoma = tested on: LOX IMVI melanoma
MDA-MB-435 = tested on: MDA-MB-435
NCI-H460 lung = tested on: NCI-H460 lung
OVCAR-8 ovarian = tested on: OVCAR-8 ovarian
SK-MEL-5 melanoma = tested on: SK-MEL-5 melanoma

Structure (SMILES) | TGI (ACHN renal) [µM] | TGI (CAKI-1 renal) [µM] | TGI (EKVX NSCLC) [µM] | TGI (HCT-15 colon) [µM] | TGI (HS 578T breast) [µM] | TGI (LOX IMVI melanoma) [µM] | TGI (MDA-MB-435) [µM] | TGI (NCI-H460 lung) [µM] | TGI (OVCAR-8 ovarian) [µM] | TGI (SK-MEL-5 melanoma) [µM] | GI50 (ACHN renal) [µM] | GI50 (CAKI-1 renal) [µM] | GI50 (EKVX NSCLC) [µM] | GI50 (HCT-15 colon) [µM] | GI50 (HS 578T breast) [µM] | GI50 (LOX IMVI melanoma) [µM] | GI50 (MDA-MB-435) [µM] | GI50 (NCI-H460 lung) [µM] | GI50 (OVCAR-8 ovarian) [µM] | GI50 (SK-MEL-5 melanoma) [µM]
NCCN1C(=O)c2ccccc2C1(O)c1ccc(Cl)cc1 (stereo not given) | 59.3 | > 100 | 52.3 | > 100 | 33.1 | 32.8 | 28.6 | 30.4 | > 100 | 31.3 | – | – | – | – | – | – | – | – | – | –
Cn1c2ccccc2c2nnc(NNCc3ccccn3)nc21 | 2.37 | 1.63 | 15.2 | 17.9 | 16.7 | 4.51 | 14.5 | 4.03 | 20.5 | 1.65 | 0.305 | 0.248 | 0.406 | 0.328 | 1.44 | 0.349 | 0.555 | 0.3 | 0.429 | 0.271
CC(=O)c1cccc(NC(=O)c2ccc(NC3=C(Cl)C(=O)N(Cc4ccccc4)C3=O)cc2)c1 | 49.1 | 3.05 | 97.3 | 44.5 | 88.7 | 33.8 | 30.1 | > 100 | 50.7 | 27.7 | 22.7 | 1.61 | 30.3 | 16.8 | 22.6 | 13.9 | 11.8 | 22.1 | 14.3 | 12.5
COc1ccc(C(=O)OC2C(OC3C(O)COC(O[C@H]4C[C@H]5[C@@H]6CC=C7C[C@@H](O)CC[C@]7(C)[C@H]6CC[C@]5(C)[C@H]4[C@H](C)C(=O)CCC(C)C)C3OC(C)=O)OCC(O)C2O)cc1 (stereo not given in full) | 9.22 | 0.349 | 2.4 | 0.628 | 0.0215 | 0.00483 | 0.0435 | 0.306 | 30 | 0.0204 | 0.00747 | < 0.003 | < 0.003 | 0.023 | < 0.003 | < 0.003 | < 0.003 | < 0.003 | 1.02 | < 0.003
CCN(CC)c1ccc(/C=C/C=C(/C#N)C(N)=S)cc1 | > 100 | > 100 | > 100 | > 100 | > 100 | 28.3 | > 100 | > 100 | > 100 | > 100 | 24 | 31.8 | 6.5 | 2.59 | 38.5 | 4.71 | 5.01 | 18.1 | 8.07 | 5.96
CC/C=C\C[C@H](O)C/C=C1/C(=O)C=C[C@@H]1C/C=C\CCCC(=O)NC | 3.21 | 4.08 | 15.2 | 5.09 | 55.2 | 1.43 | 6.64 | 4.15 | 10.2 | 2.98 | 1.56 | 1.38 | 3.71 | 1.52 | 5.24 | 0.317 | 1.73 | 1.63 | 2.4 | 1.62
Cc1cc(O)cc(C)c1/C=C/c1cncc(C(=O)OC(C)(C)C)c1 | > 25 | > 25 | > 25 | > 25 | 24.7 | > 25 | > 25 | > 25 | > 25 | > 25 | 12.7 | 12.3 | 12.6 | 11.5 | 7.64 | 16 | 11.6 | 13.5 | 18 | 10.2
CC(C)(C)OC(=O)NCCCCCCCCCCn1c2c(c3ccccc3c1=O)C(=O)c1ccccc1-2 | 66 | > 100 | > 100 | > 100 | > 100 | > 100 | > 100 | > 100 | > 100 | > 100 | 18.5 | 27.9 | > 100 | > 100 | 24.6 | > 100 | > 100 | > 100 | 89.9 | > 100
CC(=O)c1ccc2c(c1)N(CCCN(C)C)c1ccccc1S2 | 30.6 | 26.4 | 30.9 | 31.2 | 27.8 | 25.4 | 25.7 | 33.8 | 37.4 | 26.2 | 15.5 | 12.6 | 13.1 | 16 | 11.6 | 12.4 | 11.8 | 18 | 17.7 | 13.2
COc1ccc(Oc2cc(NCCC(F)(F)F)c3ncc(-c4ccc(C(=O)NC5CC5)c(C)c4)n3n2)c(F)c1F | 30.2 | > 100 | > 100 | > 100 | 50.6 | > 100 | > 100 | > 54 | 26.9 | > 100 | 0.304 | 0.365 | 2.53 | < 0.01 | 1 | 0.125 | 2.64 | < 0.01 | 0.0738 | 4.75
COc1cc2c(cc1O)C(c1cc(O)c(O)c(OC)c1)C(O)(C(=O)O)C(CO)C2O (stereo not given) | > 100 | > 100 | 36.9 | > 100 | > 100 | 33.3 | 37 | > 100 | > 100 | > 100 | – | – | – | – | – | – | – | – | – | –
Oc1c2c(c(O)c3ccccc13)C1(N=N2)c2ccccc2Oc2ccccc21 | 16 | 26.5 | 28.3 | 9.15 | 41.5 | 7.31 | 17.9 | 46.3 | 11.1 | 27.2 | – | – | – | – | – | – | – | – | – | –
N#C/C(=C\c1cccc2cnccc12)N1N=NC2C=CC=CC21 (stereo not given) | > 100 | > 100 | > 100 | > 100 | 9.16 | > 100 | > 100 | 32.7 | > 100 | > 100 | 2.5 | 1.7 | 2.63 | 1.74 | 2.46 | 3.01 | 2.87 | 3.98 | 3.32 | 3.19
